Data from patent publication US11813306B2, “Cyclic tetramer compounds as proprotein convertase subtilisin/kexin type 9 (PCSK9) inhibitors for the treatment of metabolic disorders” (NOVARTIS AG, priority 2018, dated 2023).

Biological target: human PCSK9 (Homo sapiens, UniProt Q8NBP7)
Test: PCSK9 ligand binding assay (TR-FRET): interference with binding of human PCSK9 to human LDLR
Settings: for IC50: Human PCSK9 Alexa Fluor 647 / Human LDLR extracellular domain-Europium Kryptate; for Max % inhibition: efficacy (Amax), 100% = 1 uM unlabeled human PCSK9, 0% = DMSO
Procedure, shortened: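 Read-out was TR-FRET ratio (665 nm over 615 nm, 330 nm excitation) between Alexa Fluor 647-human PCSK9 (16 nM added) and Europium Kryptate-human LDLR ectodomain (4 nM added). Compound and PCSK9 were mixed 30 min before LDLR, then incubated 2 h. Inhibition was normalised to DMSO and unlabelled-PCSK9 controls, giving IC50 and Amax.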

Chain of human PCSK9 (Q8NBP7 153-692): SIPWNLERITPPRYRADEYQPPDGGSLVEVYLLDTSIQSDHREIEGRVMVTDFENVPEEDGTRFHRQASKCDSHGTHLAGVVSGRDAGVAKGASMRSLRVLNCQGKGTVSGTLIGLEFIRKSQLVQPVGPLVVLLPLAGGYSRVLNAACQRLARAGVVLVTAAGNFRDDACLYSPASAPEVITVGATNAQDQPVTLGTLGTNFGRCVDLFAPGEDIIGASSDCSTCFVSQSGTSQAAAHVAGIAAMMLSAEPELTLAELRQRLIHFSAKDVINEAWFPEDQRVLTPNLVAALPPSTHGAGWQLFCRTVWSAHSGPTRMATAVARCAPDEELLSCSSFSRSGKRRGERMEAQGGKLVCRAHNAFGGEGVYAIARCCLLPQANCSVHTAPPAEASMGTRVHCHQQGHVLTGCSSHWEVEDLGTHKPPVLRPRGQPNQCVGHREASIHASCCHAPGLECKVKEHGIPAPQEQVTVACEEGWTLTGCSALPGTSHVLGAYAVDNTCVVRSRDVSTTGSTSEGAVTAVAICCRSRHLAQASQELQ
Chain of human PCSK9 (Q8NBP7 31-152 partner limits assumed): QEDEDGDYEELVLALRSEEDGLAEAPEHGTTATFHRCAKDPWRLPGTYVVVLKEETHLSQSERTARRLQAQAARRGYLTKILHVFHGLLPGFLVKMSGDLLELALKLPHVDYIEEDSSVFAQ

SMILES | IC50 | Max % inhibition
C[C@H]1C(=O)N[C@@H](CO)C(=O)N[C@@]2(Cc3ccc(Cl)cc3)CCCN(C2)C(=O)[C@H]([C@@H]2CCc3ccccc32)CC(=O)N1Cc1ccccc1Oc1ccc(-c2cnc(CN(C)C)n2C)cc1 [Compound 55, (3S,7S,10S,13R)-13-(4-chlorobenzyl)-3-((S)-2,3-dihydro-1H-inden-1-yl)-6-(2-(4-(2-((dimethylamino)methyl)-1-methyl-1H-imidazol-5-yl)phenoxy)benzyl)-10-(hydroxymethyl)-7-methyl-1,6,9,12-tetraazabicyclo[11.3.1]heptadecane-2,5,8,11-tetraone] | 0.742 nM | 96.0%
COC[C@@H]1NC(=O)[C@H](C)N(Cc2c(F)cc(Cl)cc2Oc2ccc(-c3cnc(CN(C)C)n3C)cc2)C(=O)C[C@@H](Cc2ccccn2)C(=O)N2CCC[C@@](Cc3ccc(Cl)cc3)(C2)N(C)C1=O [Compound 57, (3R,7S,10S,13R)-6-(4-Chloro-2-(4-(2-((dimethylamino)methyl)-1-methyl-1H-imidazol-5-yl)phenoxy)-6-fluorobenzyl)-13-(4-chlorobenzyl)-10-(methoxymethyl)-7,12-dimethyl-3-(pyridin-2-ylmethyl)-1,6,9,12-tetraazabicyclo[11.3.1]heptadecane-2,5,8,11-tetraone] | 0.763 nM | 115.6%
C[C@H]1C(=O)N[C@@H](CO)C(=O)N[C@@]2(Cc3ccc(Cl)cc3)CCCN(C2)C(=O)[C@H](CC(F)F)NC(=O)N1Cc1ccc(Cl)cc1Oc1ccc(-c2cnc(CN(C)C)n2C)cc1.Cl [Compound 58, (3S, 7S, 10S, 13R)-6-(4-chloro-2-(4-(2-((dimethylamino)methyl)-1-methyl-1H-imidazol-5-yl)phenoxy)benzyl)-13-(4-chlorobenzyl)-3-(2,2-difluoroethyl)-10-(hydroxymethyl)-7-methyl-1,4,6,9,12-pentaazabicyclo[11.3.1]heptadecane-2,5,8,11-tetraone] | 0.367 nM | 106.6%
C[C@H]1C(=O)N[C@@H](CO)C(=O)N[C@@]2(Cc3ccc(Cl)cc3)CCCN(C2)C(=O)[C@H](Cc2ccc(C(F)(F)F)cc2)CC(=O)N1Cc1ccc(Cl)cc1Oc1ccc(-c2cnc(CN(C)C)n2C)cc1 [Compound 62, (3R, 7S, 10S, 13R)-6-(4-chloro-2-(4-(2-((dimethylamino)methyl)-1-methyl-1H-imidazol-5-yl)phenoxy)benzyl)-13-(4-chlorobenzyl)-10-(hydroxymethyl)-7-methyl-3-(4-(trifluoromethyl)benzyl)-1,6,9,12-tetraazabicyclo[11.3.1]heptadecane-2,5,8,11-tetraone] | 0.963 nM | 110.7%
CC[C@@H]1CC(=O)N(Cc2c(F)cc(Cl)cc2Oc2ccc(-c3cnc(CN(C)C)n3C)cc2)[C@@H](C)C(=O)N[C@@H](COC)C(=O)N[C@@]2(Cc3ccc(Cl)cc3)CCCN(C2)C1=O [Compound 63] | 0.851 nM | 117.9%
C[C@H](O)[C@@H]1NC(=O)[C@H](C)N(Cc2ccc(Cl)cc2Oc2ccc(-c3cnc(CN(C)C)n3C)cc2)C(=O)C[C@@H](CC(F)(F)F)C(=O)N2CCC[C@@](Cc3ccc(Cl)cc3)(C2)NC1=O [Compound 64, (3S,7S,10S,13R)-6-(4-chloro-2-(4-(2-((dimethylamino)methyl)-1-methyl-1H-imidazol-5-yl)phenoxy)benzyl)-13-(4-chlorobenzyl)-10-((S)-1-hydroxyethyl)-7-methyl-3-(2,2,2-trifluoroethyl)-1,6,9,12-tetraazabicyclo[11.3.1]heptadecane-2,5,8,11-tetraone] | 1.16 nM | 99.7%
C[C@H]1C(=O)N[C@@H](CO)C(=O)N[C@@]2(Cc3ccc(Cl)cc3)CCCN(C2)C(=O)[C@H](Cc2cccc[n+]2[O-])CC(=O)N1Cc1ccc(Cl)cc1Oc1ccc(-c2cnc(CN(C)C)n2C)cc1 [Compound 66, 2-(((3R,7S,10S,13R)-6-(4-Chloro-2-(4-(2-((dimethylamino)methyl)-1-methyl-1H-imidazol-5-yl)phenoxy)benzyl)-13-(4-chlorobenzyl)-10-(hydroxymethyl)-7-methyl-2,5,8,11-tetraoxo-1,6,9,12-tetraazabicyclo[11.3.1]heptadecan-3-yl)methyl)pyridine 1-oxide] | 0.673 nM | 104.2%
CC(C)[C@@H]1NC(=O)N(Cc2ccc(Cl)cc2Oc2ccc(-c3cnc(CN(C)C)n3C)cc2)[C@@H](C)C(=O)N[C@@H](CO)C(=O)N[C@@]2(Cc3ccc(Cl)cc3)CCCN(C2)C1=O.Cl [Compound 67, (3S, 7S, 10S, 13R)-6-(4-chloro-2-(4-(2-((dimethylamino)methyl)-1-methyl-1H-imidazol-5-yl)phenoxy)benzyl)-13-(4-chlorobenzyl)-10-(hydroxymethyl)-3-isopropyl-7-methyl-1,4,6,9,12-pentaazabicyclo[11.3.1]heptadecane-2,5,8,11-tetraone] | 0.334 nM | 104.2%
C[C@H]1C(=O)N[C@@H](CO)C(=O)N[C@@]2(Cc3ccc(Cl)cc3)CCCN(C2)C(=O)[C@H]([C@@H]2CCc3ccccc32)CC(=O)N1Cc1ccc(Cl)cc1Oc1ccc(-c2cnc(C3CN(C)C3)n2C)cc1 [Compound 69, (3S, 7S, 10S, 13R)-6-(4-chloro-2-(4-(1-methyl-2-(1-methylazetidin-3-yl)-1H-imidazol-5-yl)phenoxy)benzyl)-13-(4-chlorobenzyl)-3-((S)-2,3-dihydro-1H-inden-1-yl)-10-(hydroxymethyl)-7-methyl-1,6,9,12-tetraazabicyclo[11.3.1]heptadecane-2,5,8,11-tetraone] | 0.781 nM | 70.1%
C[C@H](c1ncc(-c2ccc(Oc3cc(Cl)ccc3CN3C(=O)C[C@@H]([C@@H]4CCc5ccccc54)C(=O)N4CCC[C@@](Cc5ccc(Cl)cc5)(C4)NC(=O)[C@H](CO)NC(=O)[C@@H]3C)cc2)n1C)N(C)C.Cl [Compound 70, (3S, 7S,10S, 13R)-6-(4-chloro-2-(4-(2-((R)-1-(dimethylamino)ethyl)-1-methyl-1H-imidazol-5-yl)phenoxy)benzyl)-13-(4-chlorobenzyl)-3-((S)-2,3-dihydro-1H-inden-1-yl)-10-(hydroxymethyl)-7-methyl-1,6,9,12-tetraazabicyclo[11.3.1]heptadecane-2,5,8,11-tetraone] | 1.48 nM | 110.7%
C[C@H]1C(=O)N[C@@H](CO)C(=O)N(C)[C@@]2(Cc3ccc(Cl)cc3)CCCN(C2)C(=O)[C@H](Cc2ccccc2)CC(=O)N1Cc1ccc(Cl)cc1Oc1ccc(-c2cnc(CN(C)C)n2C)nc1 [Compound 71] | 0.754 nM | 102.6%

Second part, the compound after the results:

IC50 | Max % inhibition | SMILES
0.624 nM | 109.4% | C[C@H]1C(=O)N[C@@H](CO)C(=O)N[C@@]2(Cc3ccc(Cl)cc3)CCCN(C2)C(=O)[C@H](Cc2ccccc2)CC(=O)N1Cc1cc(F)c(Cl)cc1Oc1ccc(-c2cnc(CN(C)C)n2C)cc1 [Compound 54, (3R, 7S, 10S, 13R)-3-benzyl-6-(4-chloro-2-(4-(2-((dimethylamino)methyl)-1-methyl-1H-imidazol-5-yl)phenoxy)-5-fluorobenzyl)-13-(4-chlorobenzyl)-10-(hydroxymethyl)-7-methyl-1,6,9,12-tetraazabicyclo[11.3.1]heptadecane-2,5,8,11-tetraone]
0.425 nM | 101.7% | C[C@H]1C(=O)N[C@@H](CO)C(=O)N[C@@]2(Cc3ccc(Cl)cc3)CCCN(C2)C(=O)[C@H](Cc2ccccc2)CC(=O)N1Cc1ccc(Cl)cc1Oc1ccc(-c2nnc(CN(C)C)n2C)cc1 [Compound 56, (3R, 7S, 10S, 13R)-3-benzyl-6-(4-chloro-2-(4-(5-((dimethylamino)methyl)-4-methyl-4H-1,2,4-triazol-3-yl)phenoxy)benzyl)-13-(4-chlorobenzyl)-10-(hydroxymethyl)-7-methyl-1,6,9,12-tetraazabicyclo[11.3.1]heptadecane-2,5,8,11-tetraone]
0.572 nM | 103.6% | COC[C@@H]1NC(=O)[C@H](C)N(Cc2ccc(Cl)cc2Oc2ccc(-c3cnc(CN4CC[C@H](O)C4)n3C)cc2)C(=O)C[C@@H](Cc2ccccc2)C(=O)N2CCC[C@@](Cc3ccc(Cl)cc3)(C2)NC1=O.Cl [Compound 59, (3R, 7S, 10S, 13R)-3-benzyl-6-(4-chloro-2-(4-(2-(((S)-3-hydroxypyrrolidin-1-yl)methyl)-1-methyl-1H-imidazol-5-yl)phenoxy)benzyl)-13-(4-chlorobenzyl)-10-(methoxymethyl)-7-methyl-1,6,9,12-tetraazabicyclo+11.3.1+heptadecane-2,5,8,11-tetraone]
0.623 nM | 109.3% | COC[C@@H]1NC(=O)[C@H](C)N(Cc2ccc(Cl)cc2Oc2ccc(-c3cnc(CN4CCC(O)CC4)n3C)cc2)C(=O)C[C@@H](Cc2ccccc2)C(=O)N2CCC[C@@](Cc3ccc(Cl)cc3)(C2)NC1=O.Cl [Compound 61]
0.621 nM | 109.2% | COC[C@@H]1NC(=O)[C@H](C)N(Cc2ccc(Cl)cc2Oc2ccc(-c3cnc(CN(C)C)n3C)cc2)C(=O)C[C@@H](Cc2ccccc2)C(=O)N2CCC[C@@](Cc3ccc(Cl)cc3)(C2)N(C)C1=O [Compound 65, (3R, 7S, 10S, 13R)-3-benzyl-6-(4-chloro-2-(4-(2-((dimethylamino)methyl)-1-methyl-1H-imidazol-5-yl)phenoxy)benzyl)-13-(4-chlorobenzyl)-10-(methoxymethyl)-7,12-dimethyl-1,6,9,12-tetraazabicyclo[11.3.]heptadecane-2,5,8,11-tetraone]
1.62 nM | 95.0% | C[C@H]1C(=O)N[C@@H](CO)C(=O)N[C@@]2(Cc3ccc(Cl)cc3)CCCN(C2)C(=O)[C@H]([C@H]2CCc3ccccc32)CC(=O)N1Cc1ccc(Cl)cc1Oc1ccc(-c2cnc(CN3CCCC3)n2C)cc1.Cl [Compound 68, (3S,7S,10S,13R)-6-(4-chloro-2-(4-(1-methyl-2-(pyrrolidin-1-ylmethyl)-1H-imidazol-5-yl)phenoxy)benzyl)-13-(4-chlorobenzyl)-3-((R)-2,3-dihydro-1H-inden-1-yl)-10-(hydroxymethyl)-7-methyl-1,6,9,12-tetraazabicyclo[11.3.1]heptadecane-2,5,8,11-tetraone hydrochloride]
